Among the data in the NIST ThermoML archive (doi:10.1021/acs.jced.5b00116) are activity coefficient values, retold here.

The data set is described as follows: activity coefficient (dimensionless); of the first substance listed, at infinite dilution; wn = mass fraction of the nth substance listed. The settings on record: 101 kPa, Liquid, Chromatography, w1 = 0.

SMILES strings stand for the structures. Numbers after ± are expanded uncertainties.

Turning to `CCO` [ethanol] + OCC(O)CO, the activity coefficient runs as follows: (313.15 K) 4.76 ± 0.5; (333.15 K) 3.98 ± 0.42; (353.15 K) 3.73 ± 0.39; (373.15 K) 3.52 ± 0.37; (393.15 K) 3.25 ± 0.34.
Consider `O` [water] + OCC(O)CO, for which the activity coefficient is 0.73 ± 0.08 (313.15 K); 0.75 ± 0.08 (333.15 K); 0.78 ± 0.08 (353.15 K); 0.79 ± 0.08 (373.15 K); 0.8 ± 0.08 (393.15 K).
